{"source": "patent US8840866B2", "about": "“Styrylpyridine derivatives and their use for binding and imaging amyloid plaques” (The Trustees of the University of Pennsylvania, priority 2006, dated 2014)", "test": "Organ distribution in normal ICR mice after iv injection of radiolabeled tracer", "assay_type": "in vivo", "conditions": "[125I]-labeled tracer", "experimental": "The mice (n=3 for each time point) were sacrificed by cervical dislocation at designated time-points post injection. The organs of interest were removed and weighed, and the radioactivity was counted with an automatic gamma counter. The percentage dose per organ was calculated by a comparison of the tissue counts to suitably diluted aliquots of the injected material. The total activity of the blood was calculated under the assumption that it is 7% of the total body weight. The % dose/g of samples was calculated by comparing the sample counts with the count of the diluted initial dose.", "data": [{"compound": "CN(C)c1ccc(/C=C/c2cnc(OCCOCCOCCF)c(I)c2)cc1", "note": "[[^125I]13a, (E)-(5-Iodo-6-{2-[2-(2-fluoroethoxy)ethoxy]ethoxy}pyridin-3-yl)-2-(4-dimethylaminophenyl)-ethylene]", "values": [{"measurement": "Biodistribution: Blood", "setting": "2 min", "value": "2.70 ± 0.58", "unit": "% dose/g"}, {"measurement": "Biodistribution: Brain", "setting": "2 min", "value": "4.03 ± 0.43", "unit": "% dose/g"}, {"measurement": "Biodistribution: Heart", "setting": "2 min", "value": "12.76 ± 1.24", "unit": "% dose/g"}, {"measurement": "Biodistribution: Kidney", "setting": "2 min", "value": "16.62 ± 1.96", "unit": "% dose/g"}, {"measurement": "Biodistribution: Liver", "setting": "2 min", "value": "22.15 ± 4.34", "unit": "% dose/g"}, {"measurement": "Biodistribution: Lung", "setting": "2 min", "value": "10.08 ± 2.15", "unit": "% dose/g"}, {"measurement": "Biodistribution: Muscle", "setting": "2 min", "value": "0.90 ± 0.20", "unit": "% dose/g"}, {"measurement": "Biodistribution: Skin", "setting": "2 min", "value": "0.54 ± 0.05", "unit": "% dose/g"}, {"measurement": "Biodistribution: Spleen", "setting": "2 min", "value": "4.47 ± 1.28", "unit": "% dose/g"}, {"measurement": "Biodistribution: Thyroid", "setting": "2 min", "value": "3.89 ± 0.67", "unit": "% dose/g"}, {"measurement": "Biodistribution: Blood", "setting": "30 min", "value": "2.05 ± 0.18", "unit": "% dose/g"}, {"measurement": "Biodistribution: Brain", "setting": "30 min", "value": "1.93 ± 0.18", "unit": "% dose/g"}, {"measurement": "Biodistribution: Heart", "setting": "30 min", "value": "1.63 ± 0.03", "unit": "% dose/g"}, {"measurement": "Biodistribution: Kidney", "setting": "30 min", "value": "3.32 ± 0.11", "unit": "% dose/g"}, {"measurement": "Biodistribution: Liver", "setting": "30 min", "value": "9.54 ± 1.30", "unit": "% dose/g"}, {"measurement": "Biodistribution: Lung", "setting": "30 min", "value": "2.50 ± 0.14", "unit": "% dose/g"}, {"measurement": "Biodistribution: Muscle", "setting": "30 min", "value": "1.00 ± 0.08", "unit": "% dose/g"}, {"measurement": "Biodistribution: Skin", "setting": "30 min", "value": "1.47 ± 0.26", "unit": "% dose/g"}, {"measurement": "Biodistribution: Spleen", "setting": "30 min", "value": "1.42 ± 0.05", "unit": "% dose/g"}, {"measurement": "Biodistribution: Thyroid", "setting": "30 min", "value": "16.23 ± 11.75", "unit": "% dose/g"}, {"measurement": "Biodistribution: Blood", "setting": "1 hr", "value": "1.65 ± 0.45", "unit": "% dose/g"}, {"measurement": "Biodistribution: Brain", "setting": "1 hr", "value": "0.68 ± 0.17", "unit": "% dose/g"}, {"measurement": "Biodistribution: Heart", "setting": "1 hr", "value": "0.97 ± 0.16", "unit": "% dose/g"}, {"measurement": "Biodistribution: Kidney", "setting": "1 hr", "value": "2.30 ± 0.54", "unit": "% dose/g"}, {"measurement": "Biodistribution: Liver", "setting": "1 hr", "value": "5.34 ± 2.22", "unit": "% dose/g"}, {"measurement": "Biodistribution: Lung", "setting": "1 hr", "value": "1.62 ± 0.46", "unit": "% dose/g"}, {"measurement": "Biodistribution: Muscle", "setting": "1 hr", "value": "0.59 ± 0.13", "unit": "% dose/g"}, {"measurement": "Biodistribution: Skin", "setting": "1 hr", "value": "1.59 ± 0.68", "unit": "% dose/g"}, {"measurement": "Biodistribution: Spleen", "setting": "1 hr", "value": "0.99 ± 0.47", "unit": "% dose/g"}, {"measurement": "Biodistribution: Thyroid", "setting": "1 hr", "value": "24.19 ± 8.26", "unit": "% dose/g"}, {"measurement": "Biodistribution: Blood", "setting": "2 hr", "value": "1.45 ± 0.41", "unit": "% dose/g"}, {"measurement": "Biodistribution: Brain", "setting": "2 hr", "value": "0.26 ± 0.04", "unit": "% dose/g"}, {"measurement": "Biodistribution: Heart", "setting": "2 hr", "value": "0.73 ± 0.17", "unit": "% dose/g"}, {"measurement": "Biodistribution: Kidney", "setting": "2 hr", "value": "1.71 ± 0.24", "unit": "% dose/g"}, {"measurement": "Biodistribution: Liver", "setting": "2 hr", "value": "5.62 ± 1.31", "unit": "% dose/g"}, {"measurement": "Biodistribution: Lung", "setting": "2 hr", "value": "1.33 ± 0.39", "unit": "% dose/g"}, {"measurement": "Biodistribution: Muscle", "setting": "2 hr", "value": "0.53 ± 0.08", "unit": "% dose/g"}, {"measurement": "Biodistribution: Skin", "setting": "2 hr", "value": "1.23 ± 0.41", "unit": "% dose/g"}, {"measurement": "Biodistribution: Spleen", "setting": "2 hr", "value": "0.79 ± 0.27", "unit": "% dose/g"}, {"measurement": "Biodistribution: Thyroid", "setting": "2 hr", "value": "60.76 ± 6.09", "unit": "% dose/g"}]}, {"compound": "CNc1ccc(/C=C/c2cnc(OCCOCCOCCF)c(I)c2)cc1", "note": "[[^125I]13b, (E)-(5-Iodo-6-{2-[2-(2-fluoroethoxy)ethoxy]ethoxy}pyridin-3-yl)-2-(4-methylaminophenyl)-ethylene]", "values": [{"measurement": "Biodistribution: Blood", "setting": "2 min", "value": "4.37 ± 1.07", "unit": "% dose/g"}, {"measurement": "Biodistribution: Brain", "setting": "2 min", "value": "6.22 ± 1.01", "unit": "% dose/g"}, {"measurement": "Biodistribution: Heart", "setting": "2 min", "value": "9.85 ± 1.78", "unit": "% dose/g"}, {"measurement": "Biodistribution: Kidney", "setting": "2 min", "value": "9.03 ± 6.81", "unit": "% dose/g"}, {"measurement": "Biodistribution: Liver", "setting": "2 min", "value": "26.24 ± 4.47", "unit": "% dose/g"}, {"measurement": "Biodistribution: Lung", "setting": "2 min", "value": "6.85 ± 0.27", "unit": "% dose/g"}, {"measurement": "Biodistribution: Muscle", "setting": "2 min", "value": "1.04 ± 0.25", "unit": "% dose/g"}, {"measurement": "Biodistribution: Skin", "setting": "2 min", "value": "1.48 ± 0.07", "unit": "% dose/g"}, {"measurement": "Biodistribution: Spleen", "setting": "2 min", "value": "4.41 ± 1.05", "unit": "% dose/g"}, {"measurement": "Biodistribution: Thyroid", "setting": "2 min", "value": "5.74 ± 0.42", "unit": "% dose/g"}, {"measurement": "Biodistribution: Blood", "setting": "30 min", "value": "3.83 ± 1.11", "unit": "% dose/g"}, {"measurement": "Biodistribution: Brain", "setting": "30 min", "value": "1.23 ± 0.13", "unit": "% dose/g"}, {"measurement": "Biodistribution: Heart", "setting": "30 min", "value": "2.54 ± 0.37", "unit": "% dose/g"}, {"measurement": "Biodistribution: Kidney", "setting": "30 min", "value": "3.40 ± 0.76", "unit": "% dose/g"}, {"measurement": "Biodistribution: Liver", "setting": "30 min", "value": "11.47 ± 2.10", "unit": "% dose/g"}, {"measurement": "Biodistribution: Lung", "setting": "30 min", "value": "3.01 ± 0.96", "unit": "% dose/g"}, {"measurement": "Biodistribution: Muscle", "setting": "30 min", "value": "1.11 ± 0.34", "unit": "% dose/g"}, {"measurement": "Biodistribution: Skin", "setting": "30 min", "value": "2.95 ± 0.81", "unit": "% dose/g"}, {"measurement": "Biodistribution: Spleen", "setting": "30 min", "value": "2.49 ± 0.75", "unit": "% dose/g"}, {"measurement": "Biodistribution: Thyroid", "setting": "30 min", "value": "24.09 ± 27.44", "unit": "% dose/g"}, {"measurement": "Biodistribution: Blood", "setting": "1 hr", "value": "2.88 ± 0.28", "unit": "% dose/g"}, {"measurement": "Biodistribution: Brain", "setting": "1 hr", "value": "0.62 ± 0.17", "unit": "% dose/g"}, {"measurement": "Biodistribution: Heart", "setting": "1 hr", "value": "1.75 ± 0.26", "unit": "% dose/g"}, {"measurement": "Biodistribution: Kidney", "setting": "1 hr", "value": "2.81 ± 0.70", "unit": "% dose/g"}, {"measurement": "Biodistribution: Liver", "setting": "1 hr", "value": "7.70 ± 1.22", "unit": "% dose/g"}, {"measurement": "Biodistribution: Lung", "setting": "1 hr", "value": "2.37 ± 0.29", "unit": "% dose/g"}, {"measurement": "Biodistribution: Muscle", "setting": "1 hr", "value": "0.85 ± 0.06", "unit": "% dose/g"}, {"measurement": "Biodistribution: Skin", "setting": "1 hr", "value": "2.46 ± 0.16", "unit": "% dose/g"}, {"measurement": "Biodistribution: Spleen", "setting": "1 hr", "value": "1.75 ± 0.33", "unit": "% dose/g"}, {"measurement": "Biodistribution: Thyroid", "setting": "1 hr", "value": "38.09 ± 6.37", "unit": "% dose/g"}, {"measurement": "Biodistribution: Blood", "setting": "2 hr", "value": "2.21 ± 0.73", "unit": "% dose/g"}, {"measurement": "Biodistribution: Brain", "setting": "2 hr", "value": "0.26 ± 0.01", "unit": "% dose/g"}, {"measurement": "Biodistribution: Heart", "setting": "2 hr", "value": "1.22 ± 0.28", "unit": "% dose/g"}, {"measurement": "Biodistribution: Kidney", "setting": "2 hr", "value": "1.86 ± 0.36", "unit": "% dose/g"}, {"measurement": "Biodistribution: Liver", "setting": "2 hr", "value": "6.25 ± 1.79", "unit": "% dose/g"}, {"measurement": "Biodistribution: Lung", "setting": "2 hr", "value": "1.85 ± 0.74", "unit": "% dose/g"}, {"measurement": "Biodistribution: Muscle", "setting": "2 hr", "value": "0.44 ± 0.19", "unit": "% dose/g"}, {"measurement": "Biodistribution: Skin", "setting": "2 hr", "value": "1.32 ± 0.41", "unit": "% dose/g"}, {"measurement": "Biodistribution: Spleen", "setting": "2 hr", "value": "1.27 ± 0.24", "unit": "% dose/g"}, {"measurement": "Biodistribution: Thyroid", "setting": "2 hr", "value": "215.05 ± 74.59", "unit": "% dose/g"}]}]}
